Positions of bridges follow the written chain, without caps; N, C: chain ends. Non-standard residues stand in square brackets, D forms with d. Residues, ends and D or L forms follow the SMILES beside them. Hyp = O=C(O)[C@@H]1C[C@@H](O)CN1; R8 = C=CCCCCCC[C@@](C)(N)C(=O)O; hLeu = CC(C)CC[C@H](N)C(=O)O; S5 = C=CCCC[C@](C)(N)C(=O)O; AEA = NCCOCC(=O)O
Columns and labels:
[1] = test system: HCT-116 subcutaneous xenograft; assay: Subcutaneous HCT-116 xenograft model; type: in vivo, BALB/c nude mice
Method: (§1) Four-week-old male BALB/c nude mice (15-20 g) were used to establish subcutaneous and orthotopic xenograft models. A total of 5 × 10^6 HCT-116 cells were subcutaneously inoculated into the right flanks of the mice. Tumor volume was calculated using the following formula: V = (L × W^2)/2, where L is the length and W is the width of the tumor nodules measured with a vernier caliper. […] Drugs were intravenously injected into the mice every 2 days for 2 weeks. In addition, the model of orthotopic CRC xenografts was established. Briefly, mice were anesthetized after fasting for 12 h. Subsequently, the distal anal and rectal mucosa were exposed, and transanal injection of HCT-116 cells (5 × 10^6) was performed using a 30 G sterile needle. The injection was given directly into the rectal mucosa. Tumor growth was investigated, and once the tumors reached ~0.5 cm in size, the mice were randomly divided into two groups. The mice were treated every other day for 2 weeks with tail vein injections of either vehicle (saline) or sPMI-HIF2-1 (2 mg/kg). Body weight was measured before saline or drug injection. All mice were euthanized on day 14 following drug treatment, and the tumors were isolated, photographed, weighed, and measured.

HCT116 p53^-/- cells = assay: Cell viability assay (CCK-8); type: cell-based, human; conditions: CCK-8, 72 h incubation, absorbance 450 nm; read-out: IC50 (μM) HCT116 p53^-/-
[2] = test system: HCT-116 orthotopic (rectal mucosa) xenograft; assay: Orthotopic CRC xenograft model; type: in vivo, BALB/c nude mice
Method: as §1

[3] = 10 mg/kg i.v. tail vein every other day for 2 weeks, tumor volume

## CC(=O)N[C@H](C(=O)N[C@@H](CO)C(=O)N[C@@H](Cc1ccccc1)C(=O)N[C@]1(C)CCCCCCC=CCCC[C@@](C)(C(=O)NCCOCC(=O)N[C@@H](CC(C)C)C(=O)N[C@@H](C)C(=O)N2C[C@H](O)C[C@H]2C(=O)N[C@@H](Cc2ccc(O)cc2)C(=O)N[C@@H](CCC(C)C)C(=O)N2CCC[C@H]2C(N)=O)NC(=O)[C@H](CC(C)C)NC(=O)[C@H](CC(C)C)NC(=O)[C@H](C)NC(=O)[C@H](Cc2c[nH]c3ccccc23)NC(=O)[C@H](Cc2ccc(O)cc2)NC(=O)[C@H](CCC(=O)O)NC1=O)[C@@H](C)O [SPMI-HIF2-1] (Ac-TSF[R8]EYWALL[S5][AEA]LA[Hyp]Y[hLeu]P-NH2; staple 4-11)
[1]; 10 mg/kg i.v. every other day for 2 weeks
  body weight: no obvious changes in body weight
[1]; [3]
  inhibition of tumor growth, enhanced compared to the 50 mg/kg PMI-HIF1-1 group: 3 fold
  inhibition of tumor growth, enhanced compared to the control group: 5 fold
HCT116 p53^-/- cells
  IC50: > 100 µM
[2]; 2 mg/kg i.v. every 2 days until the 13th day, compared to saline-treated controls
  body weight: no obvious change in body weight
[2]; 2 mg/kg i.v. tail vein every 2 days until the 13th day, n = 5 mice/group
  reduction in tumor weight compared to the control group: 77%

From publication PMC9516243, “Design of stapled peptide-based PROTACs for MDM2/MDMX atypical degradation and tumor suppression” (Theranostics, 2022)
